How the values were obtained:
[1] = biological target: rat maltase (partially purified alpha-glucosidase from intestinal rat powder); assay: Intestinal alpha-glucosidase assay, maltose substrate (Glucose GO Kit); assay type: biochemical
In short: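 Rat intestinal enzyme prep + test cpd dilutions, 60 min 37 °C; add maltose (maltase) or sucrose (sucrase), 30 min 37 °C; stop 90 °C 5 min. Glucose readout (glucose oxidase kit). IC50 from 4-PL fit of % inhibition vs conc.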

[2] = biological target: T1, recombinant human GBA (beta-glucocerebrosidase) (Homo sapiens, UniProt P04062); assay: Beta-glucocerebrosidase (GBA, glucosylceramidase) assay (4-methylumbelliferyl-beta-D-pyranoside substrate, fluorescence); assay type: biochemical
T1 sequence (P04062 40-536): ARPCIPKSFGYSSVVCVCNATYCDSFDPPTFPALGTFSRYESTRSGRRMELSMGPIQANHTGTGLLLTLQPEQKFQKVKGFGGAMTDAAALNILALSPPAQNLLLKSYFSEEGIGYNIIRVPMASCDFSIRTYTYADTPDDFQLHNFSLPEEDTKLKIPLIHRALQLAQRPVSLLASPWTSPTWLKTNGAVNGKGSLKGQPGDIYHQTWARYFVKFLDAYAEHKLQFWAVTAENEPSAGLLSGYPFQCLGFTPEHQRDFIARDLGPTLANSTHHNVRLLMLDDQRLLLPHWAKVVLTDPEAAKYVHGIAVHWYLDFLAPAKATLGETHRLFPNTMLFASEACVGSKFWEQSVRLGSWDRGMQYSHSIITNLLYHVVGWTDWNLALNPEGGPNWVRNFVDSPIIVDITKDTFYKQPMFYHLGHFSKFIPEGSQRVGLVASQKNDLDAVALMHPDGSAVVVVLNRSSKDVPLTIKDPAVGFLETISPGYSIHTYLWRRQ
In short: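 Recombinant human GBA preincubated with compound dilutions 60 min at 37 °C, then 4-methylumbelliferyl-beta-D-pyranoside added for 60 min at 37 °C. Stopped at pH 10 (glycine/NaOH); fluorescence ex 365/em 440 nm. IC50 from 4-PL fit of inhibition relative to untreated enzyme.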

Compound: O=[N+]([O-])c1cc(-c2ncccn2)ccc1NCCc1ccc(CCN2C[C@H](O)[C@@H](O)[C@H](O)[C@H]2CO)cc1 [Compound 1111, (2R,3R,4R,5S)-2-(hydroxymethyl)-1-{2-[4-(2-{[2-nitro-4-(pyrimidin-2-yl)phenyl]amino}ethyl)phenyl]ethyl}piperidine-3,4,5-triol]
- IC50 [1]: < 1 nM
- IC50 [2]: 1790 nM

Compound: O=[N+]([O-])c1cc(-c2ncco2)ccc1NCCc1ccc(CCN2C[C@H](O)[C@@H](O)[C@H](O)[C@H]2CO)cc1 [Compound 1112, (2R,3R,4R,5S)-2-(hydroxymethyl)-1-{2-[4-(2-{[2-nitro-4-(1,3-oxazol-2-yl)phenyl]amino}ethyl)phenyl]ethyl}piperidine-3,4,5-triol]
- IC50 [1]: 1 nM
- IC50 [2]: 4990 nM

Compound: O=S(=O)(Nc1cc(NCCCCCCN2C[C@H](O)[C@@H](O)[C@H](O)[C@H]2CO)cc(-c2ncccn2)c1)C1CC1 [Compound 1114, N-[3-(pyrimidin-2-yl)-5-({6-[(2R,3R,4R,5S)-3,4,5-trihydroxy-2-(hydroxymethyl)piperidin-1-yl]hexyl}amino)phenyl]cyclopropanesulfonamide]
- IC50 [1]: 5 nM
- IC50 [2]: 5140 nM

Compound: [N-]=[N+]=Nc1ccc(NCCc2cc(CCN3C[C@H](O)[C@@H](O)[C@H](O)[C@H]3CO)cc(C3CCCCC3)c2)c([N+](=O)[O-])c1 [Compound 1115, (2R,3R,4R,5S)-1-[2-(3-{2-[(4-azido-2-nitrophenyl)amino]ethyl}-5-cyclohexylphenyl)ethyl]-2-(hydroxymethyl)piperidine-3,4,5-triol]
- IC50 [1]: 6740 nM
- IC50 [2]: 407 nM

Compound: COC(=O)c1cc(Cl)cc(NCCc2ccc(CCN3C[C@H](O)[C@@H](O)[C@H](O)[C@H]3CO)cc2)c1 [Compound 1116, methyl 3-chloro-5-{[2-(4-{2-[(2R,3R,4R,5S)-3,4,5-trihydroxy-2-(hydroxymethyl)piperidin-1-yl]ethyl}phenyl)ethyl]amino}benzoate]
- IC50 [1]: 162 nM
- IC50 [2]: 904 nM

Compound: O=C(O)c1cc(Cl)cc(NCCc2ccc(CCN3C[C@H](O)[C@@H](O)[C@H](O)[C@H]3CO)cc2)c1 [Compound 1117, 3-chloro-5-{[2-(4-{2-[(2R,3R,4R,5S)-3,4,5-trihydroxy-2-(hydroxymethyl)piperidin-1-yl]ethyl}phenyl)ethyl]amino}benzoic acid]
- IC50 [1]: 218 nM
- IC50 [2]: 18100 nM

Compound: O=C(O)c1cc(NCCCCCCN2C[C@H](O)[C@@H](O)[C@H](O)[C@H]2CO)cc(-c2ncccn2)c1 [Compound 1118, 3-(pyrimidin-2-yl)-5-({6-[(2R,3R,4R,5S)-3,4,5-trihydroxy-2-(hydroxymethyl)piperidin-1-yl]hexyl}amino) benzoic acid]
- IC50 [1]: 4 nM
- IC50 [2]: 2430 nM

Compound: COc1cc(NCCc2ccc(CCN3C[C@H](O)[C@@H](O)[C@H](O)[C@H]3CO)cc2)cc(-c2noc(C3CCC3)n2)c1 [Compound 1120, (2R,3R,4R,5S)-1-{2-[4-(2-{[3-(5-cyclobutyl-1,2,4-oxadiazol-3-yl)-5-methoxyphenyl]amino}ethyl)phenyl]ethyl}-2-(hydroxymethyl)piperidine-3,4,5-triol]
- IC50 [1]: 186 nM
- IC50 [2]: 13 nM

Compound: OC[C@@H]1[C@@H](O)[C@H](O)[C@@H](O)CN1CCc1ccc(CCNc2cc(Cl)cc(-c3noc(C4CCC4)n3)c2)cc1 [Compound 1122, (2R,3R,4R,5S)-1-{2-[4-(2-{[3-chloro-5-(5-cyclobutyl-1,2,4-oxadiazol-3-yl)phenyl]amino}ethyl)phenyl]ethyl}-2-(hydroxymethyl)piperidine-3,4,5-triol]
- IC50 [1]: 717 nM
- IC50 [2]: 6 nM

— patent US20250197372A1 (priority 2020, published 2025)
